Test results taken from patent US20110015080A1, “Solution-based methods for RNA expression profiling” (MASSACHUSETTS INSTITUTE OF TECHNOLOGY, priority 2005, published 2011).
Where “and” joins values, the source holds several entries; their conditions need not be identical. Identical values can stand only once.

Test system: HL60 (human promyelocytic leukemia) cells
Test: LMA-FlexMAP bead-based gene expression signature analysis of total RNA from HL60 cells treated with tretinoin or DMSO (ninety transcripts); for FlexMap signal, transcript NM 000875 (LUA#55): test concentration or dose not given here
[1] = Experiment 2, HL60 cells, Tretinoin-treated, replicate columns
[2] = Table 6B Experiment 1, tretinoin-treated HL60 samples, one column per replicate

In the case of `CC1=C(/C=C/C(C)=C/C=C/C(C)=C/C(=O)O)C(C)(C)CCC1` [tretinoin, all-trans-retinoic acid], the “FlexMap signal, transcript NM_000698 (LUA#14)” value [1] was 1787 and 1685 and 64.5 and 1902 and 539 and 1934.5 and 1914.5 and 1773 and 1769 and 1871.5, the “FlexMap signal, transcript NM_000875 (LUA#55)” value [1] was 89 and 104 and 28.5 and 81 and 36 and 79 and 80 and 85 and 90 and 87.5 and the “FlexMap signal, transcript NM_000962 (LUA#7)” value [1] was 873 and 822.5 and 65 and 900 and 253 and 845 and 904.5 and 846 (2×) and 930. The “FlexMap signal, transcript NM_001974 (LUA#11)” value [1] was 494 and 340.5 and 30 and 516.5 and 92.5 and 533 and 515 and 493 and 470 and 539, the “FlexMap signal, transcript NM_002358 (LUA#53)” value [1] was 109 (2×) and 94 and 33.5 and 103 (2×) and 39 and 96 and 97 and 119 and the “FlexMap signal, transcript NM_003825 (LUA#8)” value [1] was 721 and 689.5 and 102 and 772 and 220 and 800 and 733 and 738 and 727 and 764. For the same molecule, the “FlexMap signal, transcript NM_004514 (LUA#46)” value [1] was 399 and 424.5 and 25 and 469 and 99 and 428 and 445 and 422 and 420.5 and 460, the “FlexMap signal, transcript NM_004631 (LUA#52)” value [1] was 399 (2×) and 397 and 38.5 and 391 and 97 and 396 and 399.5 and 401.5 and 424 and the “FlexMap signal, transcript NM_004782 (LUA#4)” value [1] was 1036.5 and 932 and 45 and 979.5 and 253 and 1005 and 1030 and 914 and 929 and 1044. The “FlexMap signal, transcript NM_005736 (LUA#1)” value [1] was 384.5 and 298.5 and 36.5 and 390 and 90.5 and 408 and 411 and 385 and 392 and 414.5, the “FlexMap signal, transcript NM_006457 (LUA#13)” value [1] was 131 (2×) and 121 and 43 and 115.5 (2×) and 65 and 118 and 120 and 117 and the “FlexMap signal, transcript NM_006773 (LUA#47)” value [1] was 284 and 354.5 and 28 and 270 and 68 and 273 and 283 and 272 and 279 and 305. The “FlexMap signal, transcript NM_006948 (LUA#51)” value [1] was 980 and 887 and 51 and 974 and 248 and 1014 and 1006 and 963.5 and 958.5 and 1024.5, the “FlexMap signal, transcript NM_007331 (LUA#50)” value [1] was 102 and 115 (2×) and 24 and 47 and 95.5 and 96 and 97.5 and 94.5 and 111.5 and the “FlexMap signal, transcript NM_013402 (LUA#54)” value [1] was 89 and 83 and 30 and 82 and 46 and 90.5 and 95.5 and 85 and 84.5 and 97. For the same molecule, the “FlexMap signal, transcript NM_014288 (LUA#48)” value [1] was 63.5 and 55 and 22 and 52 and 33 and 60 and 57 (3×) and 65, the “FlexMap signal, transcript NM_014962 (LUA#5)” value [1] was 691 and 618 and 39 and 595.5 and 160 and 670.5 and 705 and 677.5 and 678 and 710 and the “FlexMap signal, transcript NM_016061 (LUA#9)” value [1] was 450 and 440 and 48 and 458 and 121 and 470.5 and 464 and 468 and 459 and 503.5. The “FlexMap signal, transcript NM_017440 (LUA#49)” value [1] was 91 and 29 and 88 and 42 and 78 and 97 and 87.5 and 84 and 86.5, the “FlexMap signal, transcript NM_018217 (LUA#3)” value [1] was 980 and 922 and 48 and 935 and 258 and 992 and 1053.5 and 947 and 966 and 1022.5 and the “FlexMap signal, transcript NM_032571 (LUA#15)” value [1] was 228 (2×) and 244 (2×) and 22.5 and 58.5 and 234 and 208 and 205 and 239. The “FlexMap signal, transcript NM_173823 (LUA#6)” value [1] was 760 and 592 and 36 and 736 and 182.5 and 758 and 734.5 and 658.5 and 681 and 816, the “FlexMap signal of transcript NM_014288 (LUA#48)” value (Experiment 3, tretinoin-treated samples, one column per sample) was 45 and 48 and 30 and 25 and 30.5 and 39 and 43 and 33 and the “NM_000070 (FlexMap ID LUA#2) signal” value [2] was 329.5 and 386 and 269.5 and 370 and 104.5 and 354 and 372 and 159 and 336 and 318. The “NM_000153 (FlexMap ID LUA#10) signal” value [2] was 357.5 and 432 and 324 and 419.5 and 120 and 384 and 408 and 170 and 374 and 377.5, the “NM_000632 (FlexMap ID LUA#12) signal” value [2] was 323.5 and 222 and 292 and 78 and 307 and 277 and 114 and 275.5 and 251 and the “NM_000698 (FlexMap ID LUA#14) signal” value [2] was 1562 and 1779 and 1332.5 and 1743 and 503 and 1688 and 1686.5 and 787 and 1606 and 1552.5. The “NM_000875 (FlexMap ID LUA#55) signal” value [2] was 63 and 68 and 53 and 62 (2×) and 36 and 65 and 48 and 74 and 54, the “NM_000962 (FlexMap ID LUA#7) signal” value [2] was 754 and 894 and 663 and 823 and 294 and 793.5 and 807 and 398 and 772 and 764 and the “NM_001974 (FlexMap ID LUA#11) signal” value [2] was 403 and 466 and 288 and 435.5 and 95 and 414 and 430 and 141 and 420.5 and 396. The “NM_002358 (FlexMap ID LUA#53) signal” value [2] was 99 (2×) and 113 and 72 and 98 (2×) and 53 and 96 and 58 and 85, the “NM_003825 (FlexMap ID LUA#8) signal” value [2] was 557 and 658 and 476.5 and 630.5 and 256 and 580 and 609 and 318 and 584 and 550 and the “NM_004514 (FlexMap ID LUA#46) signal” value [2] was 312.5 and 356 and 262 and 320 and 96 and 306 and 313 and 144.5 and 302 and 286. The “NM_004631 (FlexMap ID LUA#52) signal” value [2] was 304 and 352 and 238 and 334 and 103 and 331 and 310.5 and 135.5 and 326 and 289.5, the “NM_004782 (FlexMap ID LUA#4) signal” value [2] was 790.5 and 907 and 635 and 855 (2×) and 232 and 870 and 812.5 and 341 and 750 and the “NM_005736 (FlexMap ID LUA#1) signal” value [2] was 308 and 336 and 319 and 351 and 89 and 329 and 319.5 and 138.5 and 309 and 279. The “NM_006457 (FlexMap ID LUA#13) signal” value [2] was 144 and 135 (2×) and 113 and 78 and 123 and 136 and 90 and 151.5 and 132, the “NM_006773 (FlexMap ID LUA#47) signal” value [2] was 213 (2×) and 257 and 139 and 56.5 and 216 and 219 and 79.5 and 235 and 174 and the “NM_006948 (FlexMap ID LUA#51) signal” value [2] was 742 and 840.5 and 592.5 and 791.5 and 224 and 773.5 and 795 and 325 and 762 and 716.5. The “NM_007331 (FlexMap ID LUA#50) signal” value [2] was 85.5 and 97 and 70 and 81 and 42 and 96 and 87 and 53 and 91 and 80, the “NM_013402 (FlexMap ID LUA#54) signal” value [2] was 72 (2×) and 71 and 62 and 75 (2×) and 43 and 75.5 and 48.5 and 71.5 and the “NM_014288 (FlexMap ID LUA#48) signal” value [2] was 64 and 62 and 55 and 61 and 45 and 60 (2×) and 56 and 41.5 and 59. For the same molecule, the “NM_014962 (FlexMap ID LUA#5) signal” value [2] was 537 and 575.5 and 414.5 and 556 and 171.5 and 552.5 and 567 and 232 and 576.5 and 516.5, the “NM_016061 (FlexMap ID LUA#9) signal” value [2] was 362.5 and 422 and 297 and 401 and 128 and 385 and 382 and 173 and 357.5 and 357 and the “NM_017440 (FlexMap ID LUA#49) signal” value [2] was 59 and 66 and 55 and 68 (2×) and 40 and 67 and 48.5 and 66.5 and 62. The “NM_018217 (FlexMap ID LUA#3) signal” value [2] was 747 and 886 and 659.5 and 824 and 225.5 and 823 and 800 and 343 and 785 and 727, the “NM_032571 (FlexMap ID LUA#15) signal” value [2] was 144 and 188 and 125 and 161 and 60 and 169 and 164.5 and 81 and 172.5 and 146 and the “NM_173823 (FlexMap ID LUA#6) signal” value [2] was 591.5 and 718 and 482.5 and 654 and 186.5 and 675 and 646 and 291 and 604.5 and 573.
